Measured values reported in US7718638B2, “(20R)-23,23-difluoro-2-methylene-19-nor-bishomopregnacalciferol-vitamin D analogs” (Wisconsin Alumni Research Foundation, priority 2007, dated 2010).
Entries after “also recorded” stand apart in the source; their conditions may differ.

How the values were obtained:
Sprague-Dawley rats [1] = experiment: Intestinal calcium transport (everted gut sac) in vitamin D-deficient rats; type: in vivo, rat; details: FIG. 5; for intestinal calcium transport: everted gut sac
Procedure: (§1) Intestinal Calcium Transport and Bone Calcium Mobilization
(§2) Male, weanling Sprague-Dawley rats were placed on Diet 11 (0.47% Ca) diet+AEK oil for one week followed by Diet 11 (0.02% Ca)+AEK oil for 3 weeks. The rats were then switched to a diet containing 0.47% Ca for one week followed by two weeks on a diet containing 0.02% Ca. Dose administration began during the last week on 0.02% calcium diet. Four consecutive ip doses were given approximately 24 hours apart. Twenty-four hours after the last dose, blood was collected from the severed neck and the concentration of serum calcium determined as a measure of bone calcium mobilization. The first 10 cm of the intestine was also collected for intestinal calcium transport analysis using the everted gut sac method.

HL-60 cells = experiment: HL-60 cell differentiation (nitro blue tetrazolium reduction); type: cell-based, human; details: FIG. 2; for EC50: HL-60 cells, 4 days
Procedure: The study drugs were dissolved in ethanol and the concentrations determined using UV spectrophotometry. Serial dilutions were prepared so that a range of drug concentrations could be tested without changing the final concentration of ethanol (≦0.2%) present in the cell cultures.
Human promyelocytic leukemia (HL60) cells were grown in RPMI-1640 medium containing 10% fetal bovine serum. The cells were incubated at 37° C. in the presence of 5% CO2.
HL60 cells were plated at 1.2×10^5 cells/ml. Eighteen hours after plating, cells in duplicate were treated with drug. Four days later, the cells were harvested and a nitro blue tetrazolium reduction assay was performed (Collins et al., 1979; J. Exp. Med. 149:969-974). The percentage of differentiated cells was determined by counting a total of 200 cells and recording the number that contained intracellular black-blue formazan deposits. Verification of differentiation to monocytic cells was determined by measuring phagocytic activity (data not shown).

Sprague-Dawley rats [2] = experiment: Bone calcium mobilization (serum calcium) in vitamin D-deficient rats; type: in vivo, rat; details: FIG. 4; for bone calcium mobilization (serum calcium levels): dose not given, vitamin D-deficient rats on 0.02% Ca diet; for bone calcium mobilization: rats on 0.02% Ca diet
Procedure: as §1, §2

[3] = target: T1, full-length recombinant rat vitamin D receptor (Rattus norvegicus, UniProt P13053); experiment: Vitamin D receptor competitive binding with [3H]-1,25(OH)2D3; details: FIG. 1
T1 construct: Full-length recombinant rat receptor was expressed in E. coli; histidine tag (C); made in house; host or cells: E. coli BL21 (DE3) Codon Plus RIL
T1 sequence (P13053 1-423): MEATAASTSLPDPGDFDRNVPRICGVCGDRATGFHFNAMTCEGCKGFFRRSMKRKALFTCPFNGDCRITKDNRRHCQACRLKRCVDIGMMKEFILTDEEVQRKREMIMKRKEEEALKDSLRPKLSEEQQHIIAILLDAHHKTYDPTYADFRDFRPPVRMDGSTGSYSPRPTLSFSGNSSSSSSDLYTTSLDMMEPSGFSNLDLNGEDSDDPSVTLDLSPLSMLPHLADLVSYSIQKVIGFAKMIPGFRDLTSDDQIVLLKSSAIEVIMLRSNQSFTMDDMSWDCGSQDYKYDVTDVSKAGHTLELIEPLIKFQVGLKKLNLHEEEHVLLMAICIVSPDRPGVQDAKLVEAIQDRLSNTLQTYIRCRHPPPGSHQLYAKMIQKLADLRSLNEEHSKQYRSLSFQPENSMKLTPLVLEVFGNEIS
Excerpt: Vitamin D Receptor Binding
Full-length recombinant rat receptor was expressed in E. coli BL21 (DE3) Codon Plus RIL cells and purified to homogeneity using two different column chromatography systems. The first system was a nickel affinity resin that utilizes the C-terminal histidine tag on this protein. The protein that was eluted from this resin was further purified using ion exchange chromatography (S-Sepharose Fast Flow). Aliquots of the purified protein were quick frozen in liquid nitrogen and stored at −80° C. until use. For use in binding assays, the protein was diluted in TEDK50 (50 mM Tris, 1.5 mM EDTA, pH 7.4, 5 mM DTT, 150 mM KCl) with 0.1% Chaps detergent. The receptor protein and ligand concentration were optimized such that no more than 20% of the added radiolabeled ligand was bound to the receptor.
Radiolabeled and unlabeled ligands were added to 100 mcl of the diluted protein at a final ethanol concentration of ≦10%, mixed and incubated overnight on ice to reach binding equilibrium. The following day, 100 mcl of hydroxylapatite slurry (50%) was added to each tube and mixed at 10-minute intervals for 30 minutes. […] After the final wash, the pellets were transferred to scintillation vials containing 4 ml of Biosafe II scintillation cocktail, mixed and placed in a scintillation counter. Total binding was determined from the tubes containing only radiolabeled ligand.

[4] = tested on: 24-hydroxylase (24Ohase) gene promoter in ROS 17/2.8 (bone) cells; experiment: In vitro transcription assay (24-hydroxylase promoter luciferase reporter); type: cell-based; details: FIG. 3
Procedure: In Vitro Transcription Assay
Transcription activity was measured in ROS 17/2.8 (bone) cells that were stably transfected with a 24-hydroxylase (24Ohase) gene promoter upstream of a luciferase reporter gene (Arbour et al., 1998). Cells were given a range of doses. Sixteen hours after dosing the cells were harvested and luciferase activities were measured using a luminometer.
RLU=relative luciferase units.

| Ki ([3]; full-length recombinant rat VDR, read-out: Ki, competition with [3H]-1,25(OH)2D3 for binding to the vitamin D receptor) [nM] | binding to the vitamin D receptor as compared to 1,25-(OH)2D3 ([3]; in words) | EC50 (HL-60 cells; Homo sapiens, 96 h) [nM] | EC50 ([4]; ROS 17/2.8 cells, 24Ohase-luciferase, 16 h, read-out: EC50, transcriptional activity in bone cells) [nM] | SMILES | intestinal calcium transport (Sprague-Dawley rats [1]; 87 pmol/day) | EC50 (HL-60 cells) [nM] | bone calcium mobilization (serum calcium levels) (Sprague-Dawley rats [2]) | intestinal calcium transport (Sprague-Dawley rats [1]; 2340 pmol/day) | intestinal calcium transport (Sprague-Dawley rats [1]; 35100 pmol/day) | intestinal calcium transport activity as compared to 1,25(OH)2D3 (Sprague-Dawley rats [1]; in words, dose not stated) | potency on HL-60 cell differentiation as compared to 1,25(OH)2D3 (HL-60 cells; in words) | bone calcium mobilization (Sprague-Dawley rats [2]; 2340 pmol/day ip for 4 consecutive days) | bone calcium mobilization (Sprague-Dawley rats [2]; 35100 pmol/day ip for 4 consecutive days) | transcriptional activity in bone cells as compared to 1α,25-dihydroxyvitamin D3 ([4]; in words) |
| --- | --- | --- | --- | --- | --- | --- | --- | --- | --- | --- | --- | --- | --- | --- |
| – | – | – | – | C=C1/C(=C\C=C2/CCC[C@]3(C)[C@@H]([C@H](C)CCCC(C)(C)O)CC[C@@H]23)C[C@@H](O)C[C@@H]1O [1,25(OH)2D3, 1α,25-dihydroxyvitamin D3, reference compound] | promotes a significant increase | 2 | increased serum calcium levels | – | – | – | – | – | – | – |
| 0.2 | bound almost equally | 100 | 10 | C=C1[C@H](O)CC(=C/C=C2\CCC[C@]3(C)[C@@H]([C@@H](C)CC(F)F)CC[C@@H]23)C[C@H]1O [FF-44, (20R)-23,23-difluoro-1α-hydroxy-2-methylene-19-nor-bishomopregnacalciferol] | – | – | very little bone calcium mobilization activity; also recorded: little, if any, activity in mobilizing calcium from bone | does not promote intestinal calcium transport | no significant intestinal calcium transport activity | very little activity | almost as potent as 1,25(OH)2D3 | did not result in mobilization of bone calcium | without any effect | about the same transcriptional activity |
